Changes are numbered by the printed parent chain.
What was measured:
[1] = target: T1, Unmet expectations (Unmet; CG11596) (Drosophila melanogaster, UniProt Q9I7X6); assay: competition with [3H]SAM binding to purified protein on anti-FLAG beads; conditions: 5 μM [3H]SAM, pH 7.4, on ice
T1 construct: FLAG-tagged, tag kept; pRK5 vector, expressed in suspension HEK-293T cells
T1 sequence (Q9I7X6 1-456): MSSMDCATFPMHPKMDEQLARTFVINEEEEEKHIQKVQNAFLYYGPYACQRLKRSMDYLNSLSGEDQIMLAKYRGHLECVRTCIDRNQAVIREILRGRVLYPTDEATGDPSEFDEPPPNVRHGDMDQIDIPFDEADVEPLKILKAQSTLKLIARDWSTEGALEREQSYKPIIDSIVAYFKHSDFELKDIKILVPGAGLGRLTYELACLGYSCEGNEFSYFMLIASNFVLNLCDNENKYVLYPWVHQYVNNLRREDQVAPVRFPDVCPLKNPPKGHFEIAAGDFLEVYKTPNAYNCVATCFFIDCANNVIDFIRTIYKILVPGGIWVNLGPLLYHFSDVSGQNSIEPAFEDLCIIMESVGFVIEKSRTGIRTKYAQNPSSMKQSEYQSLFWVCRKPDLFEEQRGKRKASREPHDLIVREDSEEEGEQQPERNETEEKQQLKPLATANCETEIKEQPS

[2] = target: T2, Unmet expectations (Unmet; CG11596) (Drosophila melanogaster, UniProt Q9I7X6, E30A); assay: [3H]SAM binding to purified protein on anti-FLAG beads; conditions: 5 μM [3H]SAM with or without unlabeled SAM, pH 7.4, on ice; labelled compound
T2 construct: FLAG-tagged, tag kept; pRK5 vector, expressed in suspension HEK-293T cells
T2 sequence (Q9I7X6 1-456 E30A): T1 sequence (Q9I7X6 1-456) with E30A

Compound	competition with [3H]SAM binding to purified protein on anti-FLAG beads [1]	SAM-binding capacity [2]
Nc1ncnc2c1ncn2[C@@H]1O[C@H](CSCC[C@H](N)C(=O)O)[C@@H](O)[C@H]1O [SAH]	it readily competes with labeled SAM for binding to Unmet	–
C[S+](CC[C@H](N)C(=O)O)C[C@H]1O[C@@H](n2cnc3c(N)ncnc32)[C@H](O)[C@@H]1O (stereo partly drawn) [SAM]	–	The E30A mutant of Unmet does not interact with dGATOR2 but maintains its SAM-binding capacity
Nc1ncnc2c1ncn2[C@@H]1O[C@H](C[C@@H](N)CC[C@H](N)C(=O)O)[C@@H](O)[C@H]1O [sinefungin]	also competes with labeled SAM for binding to Unmet	–
